Patent publication US20210371422A1, “MORPHINAN DERIVATIVE” (priority 2016, published 2021)
Where a name gives a salt, the structure may show the parent alone. Read-outs that look alike come from different tables or passages of the source.

Key:
hERG potassium channel = molecular target: T1, hERG potassium channel (Homo sapiens, UniProt Q12809); test: hERG potassium channel inhibition test (automatic patch clamp); format: cell-based; conditions: for hERG channel inhibitory effect: hERG-expressing CHO cells
T1 construct: host or cells: CHO cells
Protocol: Human Ether-a-Go-Go Related Gene (hERG) Potassium Channel Inhibition Test
The test was performed with Port-a-Patch automatic patch clump apparatus (Manion Technologies) using hERG channel-stably expressing CHO cells (purchased from Channelopathy Foundation). The membrane potential of the cells was maintained at −80 mV, then there were applied a depolarization pulse at +20 mV for 1.5 seconds, and a following test pulse at −50 mV for 1.5 seconds at a frequency of 1 time per 10 seconds, and the hERG current was confirmed as a tail current induced by the test pulse. The test compound was dissolved in an extracellular fluid (137 mM NaCl, 4 mM KCl, 1.8 mM CaCl2, 1 mM MgCl2, 10 mM D(+)-glucose, 10 mM HEPES, pH 7.4), and the solution was […] at room temperature for 5 minutes. The inhibition ratio was obtained from the ratio of the tail current value observed after the compound was applied based on the tail current value observed before the compound was applied, which was taken as 100%.

human opioid μ receptor = molecular target: T2, human opioid μ receptor (Homo sapiens, UniProt P35372); test: Opioid receptor function test (Lance Ultra cAMP Kit), μ receptor; format: cell-based; conditions: for EC50: CHO cells expressing human μ receptor, cAMP, N.C. = maximum reaction not reached at highest concentration (10 μM), not calculated, read-out: μ receptor EC° C.
T2 construct: host or cells: CHO cells
Protocol: (§1) Opioid Receptor Function Test
(§2) The functional activities of the compounds provided by the present invention on the μ, δ, and κ opioid receptors were investigated.
(§3) The test was performed by using Lance Ultra cAMP Kit (PerkinElmer) according to a method predetermined for the kit. In the evaluation of the agonistic activity, CHO cells expressing each of the human opioid receptors (δ, μ, and κ, accession numbers and catalog numbers are mentioned below) and 10 μM of each test compound were reacted for 30 minutes in an assay buffer (1×HESS, […], pH 7.4, […] (isobutylmethylxanthine), 7.5% BSA) in the presence of forskolin. Subsequently, the cAMP detection reagent included in the kit was added, and 1 hour afterward, time-resolved fluorescence measurement was performed by using the EnVision plate reader (PerkinElmer). The test compounds and the control drugs (δ: SNC80, μ: DAMGO, K: U-69593) were evaluated in a concentration range of 10^-12 to 10^-5 M, a dose-response curve of each test compound was obtained from the fluorescence values at 665 nm, and EC50 value and the Emax value were calculated. The Emax value was calculated as a ratio of the maximum reaction of the test compound to the maximum reaction of each control drug, which is taken as 100%.

human opioid δ receptor = molecular target: T3, human opioid δ receptor (Homo sapiens, UniProt P41143); test: Opioid receptor function test (Lance Ultra cAMP Kit), δ receptor; format: cell-based; conditions: for EC50: CHO cells expressing human δ receptor, cAMP, in the presence of forskolin, read-out: δ receptor EC° C.; for Emax: ratio to maximum reaction of control drug SNC80 (100%)
T3 construct: host or cells: CHO cells
Protocol: as §1, §2, §3

human opioid κ receptor = molecular target: T4, human opioid κ receptor (Homo sapiens, UniProt P41145); test: Opioid receptor function test (Lance Ultra cAMP Kit), κ receptor; format: cell-based
T4 construct: host or cells: CHO cells
Protocol: as §1, §2, §3

Wistar male rats = test: Rat elevated plus maze test; format: in vivo
Protocol: Rat Elevated Plus Maze Test
An anxiolytic effect of a compound provided by the present invention was examined using the rat elevated plus maze test.
For the test, 7 to 9 weeks old Wistar male rats were used. […] Each test substance was dissolved in a 4.5% aqueous solution of cyclodextrin, and orally administered 2 hours before the start of the test. The test data were automatically analyzed by using video image action analysis software (Smart3.0, PanLab S.L., PanLab), and wall-less running route staying time ratio (%) was calculated.

C57BL/6N male mice = test: Mouse elevated plus maze test; format: in vivo; conditions: 0.3 mg/kg subcutaneous administration, 30 minutes before test (FIG. 1)
Protocol: Mouse Elevated Plus Maze Test
For the test, 5 to 6 weeks old C57BL/6N male mice were used. On a plus maze apparatus consisting of a wall-less running route (open arm, width 6 cm, length 30 cm) and a running route with a wall (closed arm, width 6 cm, length 30 cm, height of wall 15 cm), and having a height of 40 cm, a mouse was put so as to be directed to the running route with a wall, and allowed to spontaneously enter into the plus maze. Each test substance was dissolved in saline or 0.005 N HCl in saline, and subcutaneously administered on the back 30 minutes before the start of the test. At the time of the start of the test, video recording with a video camera was started, the time at which the mouse entered into the plus maze is considered to be the start of the test, and exploratory behavior was recorded for 5 minutes. On the basis of the video image, staying time in the running routes were determined, and wall-less running route staying time ratio (%) was calculated.

[1] = Intracerebral migration test (concentration in cerebrospinal fluid and plasma); format: in vivo; conditions: male, Wistar, sc, rat, 3 mg/kg s.c., 30 minutes after administration
Protocol: Intracerebral Migration Test
A Wistar male 5-9 week old rat was used for the test. A test substance was dissolved in saline or a 4.5% cyclodextrin aqueous solution, and 1 mol/L hydrochloric acid (0.5 to 2.0 v/v %) was added thereto as necessary. The test substance was subcutaneously administered to the rat at a dose of 3 or 10 mg/kg. Thirty minutes later, cerebrospinal fluid was collected from the cisterna magna under isoflurane anesthesia. Subsequently, laparotomy was performed, and blood was collected from the vena cava. Thereafter, the blood was centrifuged at 1500×g at 4° C. for 15 minutes to obtain plasma. The animal was euthanized promptly by aortic cutting. The concentrations of the test substance in cerebrospinal fluid and plasma were measured using LC-MS/MS.

[2] = read-out: μ receptor Emax (*reaction rate at the highest concentration, reference value)
[3] = read-out: κ receptor Emax (*reaction rate at the highest concentration, reference value)
[4] = ratio to maximum reaction of control drug DAMGO (100%), read-out: μ receptor Emax

T2 sequence (P35372 whole entry): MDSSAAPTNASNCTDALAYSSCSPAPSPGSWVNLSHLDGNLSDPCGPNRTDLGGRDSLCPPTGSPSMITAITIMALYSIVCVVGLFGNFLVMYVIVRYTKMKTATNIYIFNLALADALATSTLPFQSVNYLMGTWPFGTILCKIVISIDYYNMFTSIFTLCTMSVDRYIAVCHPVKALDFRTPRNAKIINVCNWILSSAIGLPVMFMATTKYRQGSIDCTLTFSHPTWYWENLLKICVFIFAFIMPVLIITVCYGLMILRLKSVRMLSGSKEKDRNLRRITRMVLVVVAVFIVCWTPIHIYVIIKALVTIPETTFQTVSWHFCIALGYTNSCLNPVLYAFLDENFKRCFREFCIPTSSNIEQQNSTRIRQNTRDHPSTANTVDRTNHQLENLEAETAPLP
T1 sequence (Q12809 whole entry): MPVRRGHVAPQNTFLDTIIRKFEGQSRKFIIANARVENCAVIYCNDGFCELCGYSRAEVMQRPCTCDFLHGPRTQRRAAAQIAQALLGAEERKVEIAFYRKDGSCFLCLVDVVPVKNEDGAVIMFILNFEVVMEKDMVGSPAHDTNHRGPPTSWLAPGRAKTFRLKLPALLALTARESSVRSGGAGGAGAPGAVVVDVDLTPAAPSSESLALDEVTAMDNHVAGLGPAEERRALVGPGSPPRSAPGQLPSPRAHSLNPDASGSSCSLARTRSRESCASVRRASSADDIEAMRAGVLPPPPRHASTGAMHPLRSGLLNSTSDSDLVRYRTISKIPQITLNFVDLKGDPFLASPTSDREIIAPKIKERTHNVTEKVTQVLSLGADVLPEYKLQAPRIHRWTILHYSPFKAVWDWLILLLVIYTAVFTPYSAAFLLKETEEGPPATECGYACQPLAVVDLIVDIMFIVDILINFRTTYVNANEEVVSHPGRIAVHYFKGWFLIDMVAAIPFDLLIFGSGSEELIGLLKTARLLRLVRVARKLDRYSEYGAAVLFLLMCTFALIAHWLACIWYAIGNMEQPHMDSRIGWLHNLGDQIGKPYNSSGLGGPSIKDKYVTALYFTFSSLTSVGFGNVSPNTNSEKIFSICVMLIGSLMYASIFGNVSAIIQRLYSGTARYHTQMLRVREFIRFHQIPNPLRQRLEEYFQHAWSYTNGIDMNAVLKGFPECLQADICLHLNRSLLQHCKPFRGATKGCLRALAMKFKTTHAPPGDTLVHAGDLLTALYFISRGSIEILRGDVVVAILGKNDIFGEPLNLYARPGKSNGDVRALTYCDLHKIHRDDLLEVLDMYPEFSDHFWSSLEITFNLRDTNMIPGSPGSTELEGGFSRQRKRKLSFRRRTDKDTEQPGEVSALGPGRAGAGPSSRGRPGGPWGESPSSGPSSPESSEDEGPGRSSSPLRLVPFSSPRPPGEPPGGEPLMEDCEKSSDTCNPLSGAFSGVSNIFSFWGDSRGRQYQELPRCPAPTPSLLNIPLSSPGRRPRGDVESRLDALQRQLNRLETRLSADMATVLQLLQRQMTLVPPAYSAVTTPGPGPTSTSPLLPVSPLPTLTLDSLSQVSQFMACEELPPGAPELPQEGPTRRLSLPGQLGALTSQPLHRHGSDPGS
T4 sequence (P41145 whole entry): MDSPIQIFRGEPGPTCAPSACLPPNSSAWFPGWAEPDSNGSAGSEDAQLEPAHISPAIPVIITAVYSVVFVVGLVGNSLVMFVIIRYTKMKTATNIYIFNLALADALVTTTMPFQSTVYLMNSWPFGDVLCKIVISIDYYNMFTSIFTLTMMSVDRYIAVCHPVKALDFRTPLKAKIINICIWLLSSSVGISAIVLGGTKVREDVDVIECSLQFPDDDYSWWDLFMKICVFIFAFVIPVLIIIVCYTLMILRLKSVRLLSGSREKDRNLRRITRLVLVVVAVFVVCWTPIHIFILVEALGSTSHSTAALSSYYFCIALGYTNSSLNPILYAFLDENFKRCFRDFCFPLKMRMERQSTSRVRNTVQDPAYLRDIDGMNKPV
T3 sequence (P41143 whole entry): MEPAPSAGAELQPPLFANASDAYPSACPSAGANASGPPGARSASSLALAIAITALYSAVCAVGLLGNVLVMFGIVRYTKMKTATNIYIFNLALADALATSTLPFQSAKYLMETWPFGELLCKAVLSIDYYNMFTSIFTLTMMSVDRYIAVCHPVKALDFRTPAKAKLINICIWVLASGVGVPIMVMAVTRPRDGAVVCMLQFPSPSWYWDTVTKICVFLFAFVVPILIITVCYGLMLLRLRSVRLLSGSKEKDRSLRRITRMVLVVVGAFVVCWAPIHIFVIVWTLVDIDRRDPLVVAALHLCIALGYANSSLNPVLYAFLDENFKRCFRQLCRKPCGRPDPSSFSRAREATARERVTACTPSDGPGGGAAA

SMILES	hERG channel inhibitory effect (in words) (hERG potassium channel)	hERG channel inhibitory effect (hERG potassium channel; concentration 10 μM) [%]	Emax (human opioid μ receptor; [2]) [%]	EC50 (human opioid δ receptor) [nM]	Emax (human opioid δ receptor) [%]	Emax (human opioid κ receptor; [3]) [%]	further results
O=C([C@H]1CCCN1)N1C[C@H]2C[C@@]34CC[C@@H]1[C@@H]2[C@@]31CCN(CC2CC2)[C@@H]4Cc2ccc(O)cc21 [Example 2, (1S,3aR,5aS,6R,11bR,11cS)-3-(D-prolyl)-14-(cyclopropylmethyl)-10-hydroxy-2,3,3a,4,5,6,7,11c-octahydro-1H-6,11b-(epiminoethano)-1,5a-methanonaphtho[1,2-e]indole dihydrochloride]	only a weak inhibitory effect	<50	3.8	< 3	95	3.8	–
O=C([C@H]1CCCCN1)N1C[C@H]2C[C@@]34CC[C@@H]1[C@@H]2[C@@]31CCN(CC2CC2)[C@@H]4Cc2ccc(O)cc21 [Example 4, ((1S,3aR,5aS,6R,11bR,11cS)-14-(cyclopropylmethyl)-10-hydroxy-1,2,3a,4,5,6,7,11c-octahydro-3H-6,11b-(epiminoethano)-1,5a-methanonaphtho[1,2-e]indol-3-yl) ((R)-piperidin-2-yl) methanone dihydrochloride]	only a weak inhibitory effect	<50	0.87	< 3	82	5	–
O=C([C@H]1CCCNC1)N1C[C@H]2C[C@@]34CC[C@@H]1[C@@H]2[C@@]31CCN(CC2CC2)[C@@H]4Cc2ccc(O)cc21 [Example 6, ((1S,3aR,5aS,6R,11bR,11cS)-14-(cyclopropylmethyl)-10-hydroxy-1,2,3a,4,5,6,7,11c-octahydro-3H-6,11b-(epiminoethano)-1,5a-methanonaphtho[1,2-e]indol-3-yl) ((S)-piperidin-3-yl) methanone dihydrochloride]	–	–	5.5	< 3	74	–	EC50 (human opioid κ receptor): < 1 nM; Emax (human opioid κ receptor; read-out: κ receptor Emax): 11%
CN1CCC[C@@H]1C(=O)N1C[C@H]2C[C@@]34CC[C@@H]1[C@@H]2[C@@]31CCN(CC2CC2)[C@@H]4Cc2ccc(O)cc21 [Example 9, (1S,3aR,5aS,6R,11bR,11cS)-14-(cyclopropylmethyl)-10-hydroxy-3-(methyl-D-prolyl)-2,3,3a,4,5,6,7,11c-octahydro-1H-6,11b-(epiminoethano)-1,5a-methanonaphtho[1,2-e]indol]	–	–	-0.6	< 3	64	3.7	–
O=C([C@H]1CCCO1)N1C[C@H]2CC34CCC1C2C31CCN(CC2CC2)C4Cc2ccc(O)cc21 (stereo partly drawn) [Example 12, ((1S,3aR,5aS,6R,11bR,11cS)-14-(cyclopropylmethyl)-10-hydroxy-1,2,3a,4,5,6,7,11c-octahydro-3H-6,11b-(epiinoetano)-1,5a-methanonaphtho[1,2-e]indol-3-yl) ((R)-tetrahydrofuran-2-yl) methanone]	–	–	–	< 1	85	8.7	hERG channel inhibitory effect (hERG potassium channel; concentration 1 μM): <50%; minimum effective medicinal dose (Wistar male rats; rat elevated plus maze test, p. o.): 0.3 mg/kg; wall-less traveling path residence time rate (Wistar male rats; rat, 0.3 mg/kg oral administration, 2 hours before test (FIG. 2)): significantly increases; wall-less traveling path residence time rate (C57BL/6N male mice): significantly increases; EC50 (human opioid μ receptor): > 1 nM; Emax (human opioid μ receptor; [4]): 12%; concentration at 30 min ([1]; cerebrospinal fluid, read-out: Concentration in cerebrospinal fluid): 42 nM; concentration at 30 min ([1]; plasma, read-out: Concentration in plasma): 580 nM
O=C1CC[C@H](C(=O)N2C[C@H]3C[C@@]45CC[C@@H]2[C@@H]3[C@@]42CCN(CC3CC3)[C@@H]5Cc3ccc(O)cc32)O1 [Example 13, (R)-5-((1S,3aR,5aS,6R,11bR,11cS)-14-(cyclopropylmethyl)-10-hydroxy-2,3,3a,4,5,6,7,11c-octahydro-1H-6,11b-(epiminoethano)-1,5a-methanonaphtho[1,2-e]indole-3-carbonyl) dihydrofuran-2(3H)-one]	–	–	–	< 3	70	–	hERG channel inhibitory effect (hERG potassium channel; concentration 1 μM): <50%; EC50 (human opioid μ receptor): > 1 nM; Emax (human opioid μ receptor; [4]): 35%; EC50 (human opioid κ receptor; CHO cells expressing human κ receptor, cAMP, N.C. = maximum reaction not reached at highest concentration (10 μM), not calculated, read-out: κ receptor EC° C.): < 1 nM; Emax (human opioid κ receptor; ratio to maximum reaction of control drug U-69593 (100%), read-out: κ receptor Emax): 13%
O=C([C@H]1CCCO1)N1C[C@H]2CC34CCC1C2C31CCNC4Cc2ccc(O)cc21 (stereo partly drawn) [Example 14, ((1S,3aR,5aS,6R,11bR,11cS)-10-hydroxy-1,2,3a,4,5,6,7,11c-octahydro-3H-6,11b-(epiinoetano)-1,5a-methanonaphtho[1,2-e]indol-3-yl) ((R)-tetrahydrofuran-2-yl) methanone]	only a weak inhibitory effect	<50	–	–	–	–	–
